One compound from patent US8101626B2, “GPR119 receptor agonists in methods of increasing bone mass and of treating osteoporosis and other conditions characterized by low bone mass, and combination therapy relating thereto” (Arena Pharmaceuticals, Inc., priority 2006, dated 2012) can be followed below.

The test system of one experiment is blood GIP level. Put plainly: Effect of oral GPR119 agonist on plasma GIP level (rodent total GIP ELISA) in wild-type mice, with oral glucose bolus. The experiment is classed as in vivo, C57blk/6 male mice. The note with it: 20 mg/kg per orally vs vehicle PET, FIG. 1A. On the procedure: A. C57blk/6 male mice were fasted for 18 hours, and randomly assigned into fourteen groups with n=6 for each group. Mice were administered per orally with vehicle (PET; 80% PEG400, 10% ethanol, 10% Tween80) or with a GPR119 agonist in accordance with the present invention (Compound 1Z; (2-Fluoro-4-methanesulfonyl-phenyl)-{6-[4-(3-isopropyl-[1,2,4]oxadiazol-5-yl)-piperidin-1-yl]-5-nitro-pyrimidin-4-yl}-amine) at 20 mg/kg, as indicated in FIG. 1A. Thirty minutes after treatment, a glucose bolus at 3 g/kg were delivered per orally, and plasma were collected at 0 (no glucose bolus), 2, 5, 10, 20, 40 and 60 minutes after glucose bolus. Plasma GIP levels were determined by using a rodent GIP ELISA kit purchased from Linco Research Laboratory [Rat/Mouse Gastric Inhibitory Polypeptide (Total) ELISA Catalog #EZRMGIP-55K], following instructions provided by the supplier. […]
B. C57blk/6 male mice were fasted for 18 hours, and randomly assigned into fourteen groups with n=6 for each group. […] Plasma GIP levels were determined by using a rodent GIP ELISA kit purchased from Linco Research Laboratory [Rat/Mouse Gastric Inhibitory Polypeptide (Total) ELISA Catalog #EZRMGIP-55K], following instructions provided by the supplier. […] Mean values of GIP concentration were calculated based on results with six mice in each group and shown as mean±SEM. […]

Experiment [1] deals with GPR119 receptor. Put plainly: Effect of oral GPR119 agonist on plasma GIP level in GPR119-deficient (knockout) mice compared to wild-type littermates. The experiment is classed as in vivo. As to conditions: 20 mg/kg per orally vs vehicle PET; blood at time 0 and 5 min after glucose bolus 3 g/kg; FIG. 2A. On the procedure:
(§1) A. GPR119-deficient male mice and wild-type littermates were fasted for 18 hours. Mice were administered per orally with vehicle (PET; 80% PEG400, 10% ethanol, 10% Tween80) or with a GPR119 agonist in accordance with the present invention (Compound 1Z; (2-Fluoro-4-methanesulfonyl-phenyl)-{6-[4-(3-isopropyl-[1,2,4]oxadiazol-5-yl)-piperidin-1-yl]-5-nitro-pyrimidin-4-yl}-amine) at 20 mg/kg, as indicated (n=5). Thirty minutes after treatment, blood (100 microliter) was collected via retro orbital vein of the eye (time 0) followed by a glucose bolus at 3 g/kg (per orally). Five minutes after delivering glucose, another blood sample (100 microliter) was collected (time 5 minutes). Plasma were collected after centrifugation and GIP levels were determined by using a rodent GIP ELISA kit purchased from Linco Research Laboratory [Rat/Mouse Gastric Inhibitory Polypeptide (Total) ELISA Catalog #EZRMGIP-55K], following instructions provided by the supplier. […]
(§2) B. GPR119-deficient male mice and wild-type littermates were fasted for 18 hours. […] Plasma were collected after centrifugation and GIP levels were determined by using a rodent GIP ELISA kit purchased from Linco Research Laboratory [Rat/Mouse Gastric Inhibitory Polypeptide (Total) ELISA Catalog #EZRMGIP-55K], following instructions provided by the supplier. […]

The target in experiment [2] is T1, GPR119 receptor (Mus musculus, UniProt Q7TQP3).
T1 construct: from tissue; host or cells: whole animal: wild-type male mice dosed orally, compared with GPR119-deficient littermates
T1 sequence (Q7TQP3 1-335): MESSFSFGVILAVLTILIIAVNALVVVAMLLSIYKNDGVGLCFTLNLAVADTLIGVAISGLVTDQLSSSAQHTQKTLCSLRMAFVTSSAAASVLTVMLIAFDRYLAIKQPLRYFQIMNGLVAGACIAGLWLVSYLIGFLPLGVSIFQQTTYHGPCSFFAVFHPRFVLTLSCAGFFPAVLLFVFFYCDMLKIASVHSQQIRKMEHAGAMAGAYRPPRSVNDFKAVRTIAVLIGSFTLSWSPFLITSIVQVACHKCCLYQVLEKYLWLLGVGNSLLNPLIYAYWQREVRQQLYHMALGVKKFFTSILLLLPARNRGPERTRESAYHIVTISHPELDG
The description is as above. The experiment is classed as in vivo. The note with it: 20 mg/kg per orally; wild-type littermates; time 0 and 5 min after glucose bolus 3 g/kg; FIG. 2A. As for the experimental part:
as §1, §2

For `CC(C)c1noc(C2CCN(c3ncnc(Nc4ccc(S(C)(=O)=O)cc4F)c3[N+](=O)[O-])CC2)n1` [Compound 1Z, (2-Fluoro-4-methanesulfonyl-phenyl)-{6-[4-(3-isopropyl-[1,2,4]oxadiazol-5-yl)-piperidin-1-yl]-5-nitro-pyrimidin-4-yl}-amine], in the experiment on blood GIP level (glucose bolus 3 g/kg 30 min after treatment, plasma at 0 (no glucose bolus), 2, 5, 10, 20, 40, 60 min), the “level of GIP in the blood of the mice (glucose-dependent and glucose-independent)” value was “increased both a glucose-dependent and a glucose-independent level of GIP”. In the experiment with blood GIP level (glucose bolus 3 g/kg, time course 0-60 min), the “plasma total GIP” value is on record as “stimulated plasma total GIP”. Besides, in the experiment with GPR119 receptor [1], the “glucose-independent and glucose-dependent level of GIP in the blood, GPR119-deficient vs wild-type mice” value is “functional GPR119 receptor was necessary for the administered GPR119 agonist to increase a glucose-independent level and a glucose-dependent level of GIP”. In addition, the “plasma total GIP in wild-type mice” value on GPR119 receptor [2] is on record as “stimulated plasma total GIP in the wild-type mice”.
